# According to patent US20220267310A1, “QUINAZOLINE AND CINNOLINE DERIVATIVES AS DNA-PK INHIBITOR” (MEDSHINE DISCOVERY INC., priority 2019, published 2022):
# Values joined by “and” are separate entries in the source; they are usually repeats but may differ in a detail not shown here. Equal values may be shown once.
# Experiments:
# [1] = target: T1, PI3K (p110α/p85α) (Homo sapiens, UniProt P42336); assay: PI3K (p110α/p85α) kinase inhibitory activity (HTRF); type: biochemical
# T1 construct: Eurofins Pharma Discovery Service (contract assay)
# T1 sequence (P42336 whole entry, species assumed): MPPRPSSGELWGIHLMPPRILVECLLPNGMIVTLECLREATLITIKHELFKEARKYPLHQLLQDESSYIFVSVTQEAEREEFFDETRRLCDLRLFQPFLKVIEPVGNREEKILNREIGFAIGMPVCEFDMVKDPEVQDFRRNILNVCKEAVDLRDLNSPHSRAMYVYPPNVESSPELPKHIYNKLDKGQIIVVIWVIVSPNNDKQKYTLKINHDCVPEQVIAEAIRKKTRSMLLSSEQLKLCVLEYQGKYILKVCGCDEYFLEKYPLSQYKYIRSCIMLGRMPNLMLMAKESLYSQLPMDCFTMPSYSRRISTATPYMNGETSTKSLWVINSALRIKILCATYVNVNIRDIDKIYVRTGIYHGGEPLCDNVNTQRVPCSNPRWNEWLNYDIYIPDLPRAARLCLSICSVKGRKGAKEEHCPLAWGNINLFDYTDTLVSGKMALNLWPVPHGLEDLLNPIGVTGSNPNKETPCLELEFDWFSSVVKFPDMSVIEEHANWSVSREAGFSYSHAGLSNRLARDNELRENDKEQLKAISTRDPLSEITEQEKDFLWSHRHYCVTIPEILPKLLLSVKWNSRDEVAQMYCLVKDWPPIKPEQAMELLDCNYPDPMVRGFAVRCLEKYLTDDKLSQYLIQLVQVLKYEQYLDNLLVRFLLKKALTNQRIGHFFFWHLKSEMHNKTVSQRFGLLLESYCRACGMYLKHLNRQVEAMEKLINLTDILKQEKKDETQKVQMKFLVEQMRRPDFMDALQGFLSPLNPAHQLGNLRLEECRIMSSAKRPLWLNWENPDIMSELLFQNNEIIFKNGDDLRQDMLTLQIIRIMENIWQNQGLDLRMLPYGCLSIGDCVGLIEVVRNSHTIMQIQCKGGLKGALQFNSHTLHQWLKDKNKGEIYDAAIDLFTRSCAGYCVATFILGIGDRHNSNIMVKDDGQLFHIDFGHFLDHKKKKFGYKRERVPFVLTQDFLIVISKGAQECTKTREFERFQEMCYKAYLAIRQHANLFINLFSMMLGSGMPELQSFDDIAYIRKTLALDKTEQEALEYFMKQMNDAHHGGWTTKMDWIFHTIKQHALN
# T1 sequence (P27986 whole entry partner, species assumed): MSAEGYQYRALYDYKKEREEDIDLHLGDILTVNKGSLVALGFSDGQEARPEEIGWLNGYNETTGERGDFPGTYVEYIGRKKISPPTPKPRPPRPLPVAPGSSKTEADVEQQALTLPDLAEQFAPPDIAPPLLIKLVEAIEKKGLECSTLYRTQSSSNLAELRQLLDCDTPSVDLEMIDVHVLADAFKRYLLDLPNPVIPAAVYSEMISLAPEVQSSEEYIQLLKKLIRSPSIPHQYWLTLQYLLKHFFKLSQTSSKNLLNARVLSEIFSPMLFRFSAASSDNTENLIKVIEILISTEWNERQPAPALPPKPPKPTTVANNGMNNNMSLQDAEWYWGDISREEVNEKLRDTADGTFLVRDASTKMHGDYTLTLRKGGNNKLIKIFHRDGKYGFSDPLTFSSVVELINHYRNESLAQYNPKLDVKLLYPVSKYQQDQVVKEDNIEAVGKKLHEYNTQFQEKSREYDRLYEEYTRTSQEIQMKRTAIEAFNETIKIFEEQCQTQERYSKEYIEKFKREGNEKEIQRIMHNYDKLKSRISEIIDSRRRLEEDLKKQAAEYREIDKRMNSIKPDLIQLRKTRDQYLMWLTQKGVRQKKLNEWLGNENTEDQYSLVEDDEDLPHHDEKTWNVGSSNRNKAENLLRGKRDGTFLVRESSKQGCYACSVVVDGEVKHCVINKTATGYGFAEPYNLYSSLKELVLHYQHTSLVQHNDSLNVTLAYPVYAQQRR
# Procedure: (§1) This experiment was tested at Eurofins Pharma Discovery Service, Reaction Biology Corp. (RBC)
# (§2) […] DNA-PK: Mg/ATP; GST-cMyc-p53; EDTA; Ser15 antibody; ATP: 10 μM; biotinylated phosphatidylinositol-3,4,5-triphosphate; GST label GRP1 PH domain; streptavidin and phycocyanin; europium-labelled monoclonal antibody against GST.
# (§3) PI3K (p110α/p85α) was incubated in a determination buffer containing phosphatidylinositol 4,5-diphosphate and Mg/ATP (density as required). The reaction was initiated by adding an ATP solution. After incubating at room temperature for 30 min, a termination solution containing EDTA and biotinylated phosphatidylinositol-3,4,5-triphosphate was added to terminate the reaction. Finally, a detection buffer (containing labeled anti-GST monoclonal antibody, PH domain of GRP1 with GST label and streptavidin and phycyanin and […]) was added. Then, the board was read in time-resolved fluorescence mode, and an HTRF signal was measured according to the formula HTRF=10000×(Em665 nm/Em620 nm).
# [2] = target: T2, PI3K (p110β/p85α) (Homo sapiens, UniProt P42338); assay: PI3K (p110β/p85α) kinase inhibitory activity (HTRF); type: biochemical
# T2 construct: Eurofins Pharma Discovery Service (contract assay)
# T2 sequence (P42338 whole entry, species assumed): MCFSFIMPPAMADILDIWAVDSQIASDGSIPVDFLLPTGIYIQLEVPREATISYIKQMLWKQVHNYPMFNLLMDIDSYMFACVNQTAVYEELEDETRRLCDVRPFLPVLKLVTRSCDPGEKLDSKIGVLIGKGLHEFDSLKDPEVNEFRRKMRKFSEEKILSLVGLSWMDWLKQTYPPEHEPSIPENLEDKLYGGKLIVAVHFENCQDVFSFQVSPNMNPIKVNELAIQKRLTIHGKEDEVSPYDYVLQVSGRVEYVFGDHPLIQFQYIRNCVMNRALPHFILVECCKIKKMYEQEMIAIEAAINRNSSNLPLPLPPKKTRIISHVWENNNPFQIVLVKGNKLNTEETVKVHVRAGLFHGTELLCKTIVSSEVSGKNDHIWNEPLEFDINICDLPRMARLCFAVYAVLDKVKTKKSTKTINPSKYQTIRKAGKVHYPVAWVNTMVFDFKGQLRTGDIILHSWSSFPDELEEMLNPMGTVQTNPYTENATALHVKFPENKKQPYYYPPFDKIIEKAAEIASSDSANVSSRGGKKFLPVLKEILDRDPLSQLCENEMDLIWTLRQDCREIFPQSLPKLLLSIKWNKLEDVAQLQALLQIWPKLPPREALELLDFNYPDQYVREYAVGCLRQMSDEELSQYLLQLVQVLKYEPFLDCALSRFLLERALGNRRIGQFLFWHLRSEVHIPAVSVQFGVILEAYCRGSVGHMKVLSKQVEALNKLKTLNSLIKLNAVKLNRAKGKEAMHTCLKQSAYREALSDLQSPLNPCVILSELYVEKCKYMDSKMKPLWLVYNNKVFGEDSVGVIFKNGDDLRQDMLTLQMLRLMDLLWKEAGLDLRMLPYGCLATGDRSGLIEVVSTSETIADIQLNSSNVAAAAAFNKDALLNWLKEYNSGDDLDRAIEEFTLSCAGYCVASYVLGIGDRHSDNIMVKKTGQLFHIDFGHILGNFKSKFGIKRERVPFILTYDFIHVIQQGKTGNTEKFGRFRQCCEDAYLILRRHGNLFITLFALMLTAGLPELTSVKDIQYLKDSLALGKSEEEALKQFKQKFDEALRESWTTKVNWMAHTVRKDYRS
# T2 sequence (P27986 whole entry partner, species assumed): as the sequence (P27986 whole entry partner, species assumed) above
# Procedure: as §1, §2
# as §3, with “(p110β/p85α)” for “(p110α/p85α)”, “a mixture of Mg/ATP.” for “an ATP solution.”, “phosphatidylinositol-3,4, 5-triphosphate” for “phosphatidylinositol-3,4,5-triphosphate”
# [3] = target: T3, PI3K (p110σ/p85α) (Homo sapiens, UniProt O00329); assay: PI3K (p110σ/p85α) kinase inhibitory activity (HTRF); type: biochemical
# T3 construct: Eurofins Pharma Discovery Service (contract assay)
# T3 sequence (O00329 whole entry): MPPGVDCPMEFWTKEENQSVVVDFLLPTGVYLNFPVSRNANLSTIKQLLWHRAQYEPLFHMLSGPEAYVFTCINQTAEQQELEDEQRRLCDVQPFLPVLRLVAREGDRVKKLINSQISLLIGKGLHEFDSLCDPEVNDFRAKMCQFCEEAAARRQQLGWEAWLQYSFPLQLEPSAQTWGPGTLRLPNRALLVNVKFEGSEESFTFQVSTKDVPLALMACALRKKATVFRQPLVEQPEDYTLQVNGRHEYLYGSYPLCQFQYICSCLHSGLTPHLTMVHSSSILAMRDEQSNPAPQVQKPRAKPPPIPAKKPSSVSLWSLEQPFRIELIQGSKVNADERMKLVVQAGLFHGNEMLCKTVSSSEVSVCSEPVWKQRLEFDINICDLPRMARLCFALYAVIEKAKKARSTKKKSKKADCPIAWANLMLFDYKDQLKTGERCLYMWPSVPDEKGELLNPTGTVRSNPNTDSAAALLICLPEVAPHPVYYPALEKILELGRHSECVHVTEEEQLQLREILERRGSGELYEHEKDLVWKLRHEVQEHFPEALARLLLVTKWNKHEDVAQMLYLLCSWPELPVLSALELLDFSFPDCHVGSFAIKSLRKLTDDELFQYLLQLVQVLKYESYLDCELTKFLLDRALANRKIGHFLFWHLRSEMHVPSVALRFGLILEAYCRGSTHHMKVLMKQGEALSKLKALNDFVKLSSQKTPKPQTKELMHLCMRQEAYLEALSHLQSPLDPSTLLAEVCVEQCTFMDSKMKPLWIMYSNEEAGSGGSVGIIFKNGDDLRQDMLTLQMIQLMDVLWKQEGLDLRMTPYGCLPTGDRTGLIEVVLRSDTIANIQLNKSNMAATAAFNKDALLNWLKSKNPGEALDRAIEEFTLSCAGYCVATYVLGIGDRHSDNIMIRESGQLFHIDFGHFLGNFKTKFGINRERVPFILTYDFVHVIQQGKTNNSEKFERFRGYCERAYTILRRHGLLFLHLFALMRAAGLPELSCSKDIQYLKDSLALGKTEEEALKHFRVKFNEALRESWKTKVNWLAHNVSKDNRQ
# T3 sequence (P27986 whole entry partner): as the sequence (P27986 whole entry partner, species assumed) above
# [4] = target: T4, PI3K (p120γ) (Homo sapiens, UniProt P48736); assay: PI3K (p120γ) kinase inhibitory activity (HTRF); type: biochemical
# T4 construct: Eurofins Pharma Discovery Service (contract assay)
# T4 sequence (P48736 whole entry): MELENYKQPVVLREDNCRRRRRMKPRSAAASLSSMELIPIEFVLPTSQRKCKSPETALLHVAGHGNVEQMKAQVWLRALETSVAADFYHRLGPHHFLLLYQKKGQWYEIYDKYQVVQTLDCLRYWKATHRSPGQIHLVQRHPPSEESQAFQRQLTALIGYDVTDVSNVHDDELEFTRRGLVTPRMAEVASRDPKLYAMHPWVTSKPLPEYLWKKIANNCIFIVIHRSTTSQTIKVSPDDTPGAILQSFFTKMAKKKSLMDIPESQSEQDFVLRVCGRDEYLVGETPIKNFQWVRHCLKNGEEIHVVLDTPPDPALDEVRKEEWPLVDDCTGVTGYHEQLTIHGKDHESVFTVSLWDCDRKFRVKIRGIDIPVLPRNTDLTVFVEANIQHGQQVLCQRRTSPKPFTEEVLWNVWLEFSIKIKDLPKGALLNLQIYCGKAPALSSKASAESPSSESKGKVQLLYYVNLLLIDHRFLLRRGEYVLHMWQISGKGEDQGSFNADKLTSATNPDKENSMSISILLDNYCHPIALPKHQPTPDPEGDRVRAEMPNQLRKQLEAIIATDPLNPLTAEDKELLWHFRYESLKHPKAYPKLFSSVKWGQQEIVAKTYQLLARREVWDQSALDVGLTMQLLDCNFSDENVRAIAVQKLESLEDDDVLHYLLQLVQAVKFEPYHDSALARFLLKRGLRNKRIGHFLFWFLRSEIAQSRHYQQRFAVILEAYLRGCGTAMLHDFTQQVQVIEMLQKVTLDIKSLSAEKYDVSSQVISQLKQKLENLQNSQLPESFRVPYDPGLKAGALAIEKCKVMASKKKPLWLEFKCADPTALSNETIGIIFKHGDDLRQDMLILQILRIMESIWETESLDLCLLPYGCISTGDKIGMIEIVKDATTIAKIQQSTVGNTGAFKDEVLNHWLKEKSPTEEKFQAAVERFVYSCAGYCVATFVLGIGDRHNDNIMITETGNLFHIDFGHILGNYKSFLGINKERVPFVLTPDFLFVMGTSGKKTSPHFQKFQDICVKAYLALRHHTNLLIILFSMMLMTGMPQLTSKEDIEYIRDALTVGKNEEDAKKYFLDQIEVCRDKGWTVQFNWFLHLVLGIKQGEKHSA
# Procedure: as §1, §2
# as §3, with “(p120γ)” for “(p110α/p85α)”, “a mixture of Mg/ATP.” for “an ATP solution.”
# [5] = test system: human small cell lung cancer NCI-H69 cell subcutaneous xenograft tumor; assay: NCI-H69 subcutaneous xenograft, combination with etoposide, 22-day experiment (Table 7); type: in vivo, BALB/c nude mice; details: for T/C (%) / TGI (%): 22nd day; for Tumor volume (mm^3) (0th day) / Tumor volume (mm^3) (22th day): average ± SEM
# Procedure: Experiment example 3: in vivo pharmacodynamics of human small cell lung cancer NCI-H69 cell subcutaneous xenograft tumor BALB/c nude mouse model:
# Experimental animals: Female BALB/c nude mice, 6-8 weeks old, weighing 15-22 grams; supplier: Shanghai Linchang Biotechnology Co., LTD. (Linchang, Shanghai)
# Human small cell lung cancer NCI-H69 cells (ATCC, item number: HTB-119 and ECACC-95111733) were cultured in vitro in a culture condition of RPMI-1640 medium with 10% fetal bovine serum, 100 U/mL penicillin and 100 μg/mL streptomycin, incubated at 37° C. and 5% CO2. Conventional passage was carried out twice a week. When cell saturation was 80%-90% and the number reaches the requirement, cells were collected, counted and inoculated.
# 0.2 mL (10×10^6) NCI-H69 cells (with matrix glue, and volume ratio of 1:1) were subcutaneously inoculated into a right back of each mouse, and group administration was initiated when the average tumor volume reaches about 110-120 mm^3.
# The tested compound was prepared as a 5 mg/mL clarified solution with 10% DMSO+50% polyethylene glycol 400+40% water as the solvent.
# The experimental indicators refers to study whether tumor growth was inhibited, delayed, or cured. Tumor diameter was measured twice a week with a vernier caliper. The calculation formula of the tumor volume was V=0.5a×b^2, and a and b represent the long diameter and short diameter of the tumor, respectively.
# The antitumor efficacy of the compound was evaluated by TGI (%) or relative tumor proliferation rate T/C (%). TGI (%) reflects the tumor growth inhibition rate. The calculation of TGI (%): TGI (%)=[1−(average tumor volume at the end of administration of a certain treatment group−average tumor volume at the beginning of administration of the treatment group)/(average tumor volume at the end of treatment in solvent control group−average tumor volume at the beginning of treatment in solvent control group)]×control group.
# Relative tumor proliferation rate T/C (%): the calculation formula was as follows: T/C %=[…] TRTV/CRTV group (TRTV: treatment group RTV; CRTV: negative control group RTV). According to results of tumor measurement, Relative Tumor Volume (RTV) was calculated by the formula RTV=Vt/V0, where V0 was the average tumor volume measured in group administration (i.e., d0), and Vt was the average tumor volume measured in a certain single measurement. TRTV and CRTV collect data on the same day.
# Statistic analysis includes an average value and a standard error (SEM) of tumor volume at each time point for each group. […] If there was no significant difference in F value, Dunnet (2-sided) method was applied to analysis. All data were analyzed using SPSS 17.0. P<0.05 was considered as having a significant difference.
# [6] = 40 mg/kg group (+ etoposide 10 mg/kg, IP)
# [7] = 40 mg/kg, PO, QD + etoposide 10 mg/kg, IP, 3-day administration, 4-day withdrawal
# [8] = second Embodiment 19 group of Table 7, 40 mg/kg, PO, QD + etoposide 10 mg/kg, IP
SMILES,IC50 [1],IC50 [2],IC50 [3],IC50 [4],"Weight changes [5, 6]","RTV (22th day) [5, 7]","T/C (%) [5, 7]","TGI (%) [5, 7]","Tumor volume (mm^3) (0th day) [5, 7]","Tumor volume (mm^3) (22th day) [5, 7]","Weight changes ([5]; 80 mg/kg group (+ etoposide 10 mg/kg, IP))","TGI ([5]; 80 mg/kg, PO, QD + etoposide 10 mg/kg, IP, 3-day administration, 4-day withdrawal)","RTV (22th day) [5, 8]","Tumor volume (mm^3) (0th day) ([5]; second Embodiment 19 group of Table 7, 40 mg/kg, PO, QD + etoposide 10 mg/kg, IP, 3-day administration, 4-day withdrawal)","T/C (%) [5, 8]","TGI (%) [5, 8]","Tumor volume (mm^3) (22th day) [5, 8]"
"COc1ccc(C(O)c2cc(-c3cnnc4c(F)c(N5CCOCC5)cc(F)c34)c(F)cc2Cl)nn1 (single isomer, unassigned) [Embodiment 19]",483 nM,345 nM,600 nM,9150 nM,−5.88%,3.73,43.34%,64% and 63.98%,119 ± 12 mm^3,444 ± 34 mm^3,0.13%,80%,2.51,119 ± 12 mm^3,29.20%,80.09%,299 ± 31 mm^3
"COc1ccc([C@@H](O)c2cc(-c3nncc4cc(N5CCOCC5)ccc34)c(F)cc2Cl)nn1 [Embodiment M3814, reference compound]",42 nM,33 nM,14 nM,1220 nM,−16.00%,2.96,34.40%,74% and 74.21%,119 ± 13 mm^3,352 ± 26 mm^3,,,,,,,
